In patent US20080254042A1, “Novel Use of Prrp and Receptor Thereof” (Takeda Pharmaceutical Company Limited, priority 2004, published 2008):

What was measured:
[1] = tested on: PrRP knockout mice and wild-type mice; assay: Survival of PrRP knockout and wild-type mice after MPTP administration; assay type: in vivo, mouse; settings: MPTP i.p. every 2 hours 4 times at 20 μg/kg, five days after administration
Method: MPTP (methyl-phenyl-tetrahydropyridine) known to produce animal models of Parkinson's disease was intraperitoneally administered to PrRP knockout mice and wild-type mice every 2 hours 4 times at the dose of […]. Five days after the administration, 11 out of 21 wild-type mice survived with a survival rate of 52%, whereas 10 out of 10 PrRP knockout mice survived, meaning that there was no dead animal and the survival rate was 100%.

nigral dopamine cells [2] = assay: Number of tyrosine hydroxylase positive (dopamine) cells in the substantia nigra after MPTP, PrRP knockout vs wild-type mice; assay type: in vivo, mouse; settings: FIG. 1
Description: It is known that MPTP (methyl-phenyl-tetrahydropyridine) causes degenerative loss of nigral dopamine cells to induce Parkinson's disease. Thus, the brains were excised from PrRP knockout mice and wild-type mice, to which MPTP or saline for control was given as in EXAMPLE 1, and then immersed and fixed in a 0.07M phosphate buffer (pH 7.4) containing 5% acrolein (Tokyo Chemical Industry). The brains were then immersed in 30% sucrose-containing phosphate buffered saline (PBS) for more than 2 days. The free-floating technique was used for immunohistochemistry. A frozen frontal section in 40 μm thickness of the brain was prepared using a cryomicrotome. Next, the section was soaked in and washed with PBS for water immersion, then treated with 0.5% sodium metaperiodate-containing PBS (20 minutes) to inactivate the endogenous peroxidase activity, and the aldehyde group was reduced by treatment with 1% sodium borohydride-containing PBS (20 minutes). In addition, non-specific reactions were blocked by treatment with 1% normal horse serum and 0.4% Triton X-100-containing BPS (TNBS) (an hour). […] The number of tyrosine hydroxylase positive cells, which are dopamine cells in the substantia nigra, was counted under an optical microscope.

[3] = Motor activity assessed with a rotarod after MPTP, PrRP knockout vs wild-type mice; assay type: in vivo, mouse; settings: FIG. 2
Method: In order to examine the relation of Parkinson's disease to PrRP, decrement of motor activities known as symptoms of Parkinson's disease induced by administration of MPTP was compared between PrRP knockout mice and wild-type mice. The motor activity of each mouse was assessed with a rotarod. […] Turning to the PrRP knockout mice, there was no difference between the group administered with MPTP and the group administered with saline for control, and the motor activity was normal (FIG. 2). These phenomena reveal that onset of Parkinson's disease induced by MPTP was suppressed in the PrRP knockout mice.

[4] = Catecholamine level in the striatum after MPTP, PrRP knockout vs wild-type mice; assay type: in vivo, mouse; settings: seven days after final administration, FIG. 3
Method: MPTP or saline for control was administered to PrRP knockout mice and wild-type mice in a manner similar to EXAMPLE 1. Seven days after the final administration, the striatal sites were immediately excised from the brains, frozen in liquid nitrogen and then stored at −80° C. Catecholamines such as Dopamine (DA), DOPAK, HVA, etc. were measured as follows. First, the excised corpus striata were homogenized in 0.2M perchloric acid containing 100 ng/mL isoproterenol (Sigma), centrifuged at 15,000 g for 20 minutes at 0° C., and filtered through a 0.22 μm filter. The final solution, 10 μL, was separated under the conditions at flow rate of 0.5 mL/min in 83% 0.1 M acetic acid-citrate buffer (pH 3.5)/17% methanol solution containing 190 mg/L SDS and 5 mg/L EDTA-2Na through EICOMPAK SC-50DS column (3.0 mm×150 mm, EICOM), and determined by electrochemical detection.

[5] = tested on: striatal dopamine nerve fibers; assay: TH-positive fiber density in the striatum, MPTP after intraventricular antibody; settings: C57BL/6J mice given normal mouse IgG i.c.v., then MPTP 20 mg/kg i.p. 4 times every 2 hours; P<0.05; FIG. 5
Description: (§1) Male C57BL/6J mouse (CLEA Japan) of 14 weeks old was fixed on a brain stereotaxic apparatus under anesthesia with pentobarbital (Dainippon Pharmaceutical) and the skull surface was exposed. After the skull was dried with a drier, the coordinates of bregma were located to determine the coordinates of the left lateral ventricle (AP: −0.2 mm, lateral: +1.0 mm, depth: +2.5 mm from bregma). After a burr hole was made with a dental drill on the skull across the bregma from the location of the left lateral ventricle, anchor screws (EICOM) were implanted to fix a dental cement (GC Corp., Unifast II). A hole was made with a dental drill (Urawa Corp., Model: UC100) for guide cannulation to vertically insert into the skull on the left lateral ventricle, and a guide cannula (EICOM) was eased down toward the ventricle. After leakage of cerebrospinal fluids was confirmed, the guide cannula was fixed on the coordinates determined. The dental cement was used for fixation and applied until the anchor screws were embedded. After it was confirmed that the cement was dried, the mouse was released from the stereotaxic apparatus. […]
(§2) The antibody solution was diluted in Centriprep (Millipore). Absorbance (280 nm) was measured to determine the antibody concentration, and the antibody was diluted in aseptic PBS (−) to 9.97 mg/mL. […]

nigral dopamine cells [6] = assay: Number of TH-positive cells in the substantia nigra pars compacta, MPTP after intraventricular antibody; settings: C57BL/6J mice given normal mouse IgG i.c.v., then MPTP 20 mg/kg i.p. 4 times every 2 hours; P<0.001; FIG. 4
Description: as §1, §2

CN1CC=C(c2ccccc2)CC1 [MPTP]
survival rate ([1]; PrRP knockout mice, 10 out of 10 survived): 100%
survival rate ([1]; wild-type mice, 11 out of 21 survived): 52%
decrease in number of tyrosine hydroxylase positive cells in the substantia nigra, MPTP group vs saline group (nigral dopamine cells [2]; PrRP knockout mice, no significant change): about 10%
decrease in number of tyrosine hydroxylase positive cells in the substantia nigra, MPTP group vs saline group (nigral dopamine cells [2]; wild-type mice, significant): about 60%
motor activity (rotarod), MPTP group vs saline group ([3]; PrRP knockout mice): no difference
motor activity (rotarod), MPTP group vs saline group ([3]; wild-type mice): markedly decreased
striatal dopamine (DA), DOPAC and HVA levels after MPTP ([4]; PrRP knockout mice): the degree of the decrease was smaller
striatal dopamine (DA), DOPAC and HVA levels after MPTP ([4]; wild-type mice): decreased markedly
striatal dopamine nerve fibers (image analysis), vs saline group [5]: significant decrease
dopamine cells in the substantia nigra pars compacta, vs saline group (nigral dopamine cells [6]): significant decrease
